Reference: PMC10824666 (Nature Cancer, 2023)
Like-named read-outs stand apart in the source and are kept apart here. Each block holds one compound with its values, some of them ahead of it.

Key:
Test in all cases: biochemical
Design in all cases: Eurofins DiscoverX kinase panel, competitive binding assay at 1 uM, percent of DMSO control
Settings in all cases: competitive binding, percent of DMSO control
[1] = target: WEE1 (Homo sapiens, UniProt P30291)
Procedure, shortened: (§1)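 Competitive binding assay across a 96-kinase panel with KIF18A compounds at 1 µM; values given as percentage of control (POC), single experiment.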

[2] = target: T1, YSK4 (Homo sapiens, UniProt Q56UN5)
T1 construct: gene MAP3K19
T1 sequence (Q56UN5 1-1328): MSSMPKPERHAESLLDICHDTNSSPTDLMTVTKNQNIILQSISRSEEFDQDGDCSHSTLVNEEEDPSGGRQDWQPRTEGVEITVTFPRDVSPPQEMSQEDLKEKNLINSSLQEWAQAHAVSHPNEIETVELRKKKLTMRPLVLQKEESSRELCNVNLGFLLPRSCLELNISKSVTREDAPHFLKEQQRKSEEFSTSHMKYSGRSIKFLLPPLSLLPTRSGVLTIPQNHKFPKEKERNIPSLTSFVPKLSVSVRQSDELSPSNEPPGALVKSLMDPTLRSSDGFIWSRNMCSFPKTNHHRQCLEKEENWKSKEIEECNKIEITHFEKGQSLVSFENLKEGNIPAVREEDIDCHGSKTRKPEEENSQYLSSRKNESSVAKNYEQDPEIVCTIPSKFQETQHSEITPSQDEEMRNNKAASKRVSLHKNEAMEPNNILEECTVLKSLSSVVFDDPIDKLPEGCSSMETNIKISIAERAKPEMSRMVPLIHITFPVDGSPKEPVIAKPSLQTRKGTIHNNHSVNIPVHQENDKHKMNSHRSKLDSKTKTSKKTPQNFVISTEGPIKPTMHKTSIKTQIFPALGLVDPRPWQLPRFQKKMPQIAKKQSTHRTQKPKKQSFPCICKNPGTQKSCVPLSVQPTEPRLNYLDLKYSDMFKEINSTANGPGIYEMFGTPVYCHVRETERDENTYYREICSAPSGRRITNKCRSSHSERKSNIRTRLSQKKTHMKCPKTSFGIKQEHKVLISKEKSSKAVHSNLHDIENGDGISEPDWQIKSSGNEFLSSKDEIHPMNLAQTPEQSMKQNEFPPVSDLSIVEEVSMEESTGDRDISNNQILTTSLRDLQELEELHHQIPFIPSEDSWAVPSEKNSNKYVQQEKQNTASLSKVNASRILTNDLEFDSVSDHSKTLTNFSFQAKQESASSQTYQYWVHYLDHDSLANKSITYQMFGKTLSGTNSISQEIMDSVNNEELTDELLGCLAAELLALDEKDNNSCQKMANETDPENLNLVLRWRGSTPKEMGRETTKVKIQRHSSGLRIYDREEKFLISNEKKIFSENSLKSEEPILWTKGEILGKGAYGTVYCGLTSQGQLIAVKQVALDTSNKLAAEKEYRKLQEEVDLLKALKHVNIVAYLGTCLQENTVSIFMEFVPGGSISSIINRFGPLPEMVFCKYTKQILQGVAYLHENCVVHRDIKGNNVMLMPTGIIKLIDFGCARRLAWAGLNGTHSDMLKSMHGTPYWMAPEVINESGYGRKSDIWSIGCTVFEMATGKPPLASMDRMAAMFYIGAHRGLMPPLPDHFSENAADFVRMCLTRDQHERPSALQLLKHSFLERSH
Procedure, shortened: as §1

[3] = target: T2, MSK1 (Homo sapiens, UniProt O75582)
T2 construct: gene RPS6KA5
T2 sequence (O75582 whole entry): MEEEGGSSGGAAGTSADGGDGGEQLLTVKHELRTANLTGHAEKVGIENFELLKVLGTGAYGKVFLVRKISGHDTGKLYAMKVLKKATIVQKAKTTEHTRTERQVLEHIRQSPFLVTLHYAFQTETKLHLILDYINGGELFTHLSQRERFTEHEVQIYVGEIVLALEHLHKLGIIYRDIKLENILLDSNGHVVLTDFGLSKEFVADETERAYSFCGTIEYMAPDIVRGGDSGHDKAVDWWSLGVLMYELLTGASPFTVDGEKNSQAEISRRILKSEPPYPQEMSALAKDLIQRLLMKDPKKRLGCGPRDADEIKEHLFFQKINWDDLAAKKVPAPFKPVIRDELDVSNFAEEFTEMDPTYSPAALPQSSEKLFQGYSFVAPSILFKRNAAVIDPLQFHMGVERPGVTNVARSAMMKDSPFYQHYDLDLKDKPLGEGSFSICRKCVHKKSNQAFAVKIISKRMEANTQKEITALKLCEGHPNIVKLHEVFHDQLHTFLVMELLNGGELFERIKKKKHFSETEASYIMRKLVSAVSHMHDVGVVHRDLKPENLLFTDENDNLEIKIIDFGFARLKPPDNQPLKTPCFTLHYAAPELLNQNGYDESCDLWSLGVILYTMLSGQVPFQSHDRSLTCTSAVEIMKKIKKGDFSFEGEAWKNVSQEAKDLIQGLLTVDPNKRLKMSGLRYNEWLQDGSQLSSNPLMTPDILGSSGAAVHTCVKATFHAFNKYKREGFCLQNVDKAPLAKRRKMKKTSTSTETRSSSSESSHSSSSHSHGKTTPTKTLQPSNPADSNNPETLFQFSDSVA
Procedure, shortened: as §1

[4] = target: BMPR1A (Homo sapiens, UniProt P36894)
Sequence of BMPR1A (P36894 whole entry): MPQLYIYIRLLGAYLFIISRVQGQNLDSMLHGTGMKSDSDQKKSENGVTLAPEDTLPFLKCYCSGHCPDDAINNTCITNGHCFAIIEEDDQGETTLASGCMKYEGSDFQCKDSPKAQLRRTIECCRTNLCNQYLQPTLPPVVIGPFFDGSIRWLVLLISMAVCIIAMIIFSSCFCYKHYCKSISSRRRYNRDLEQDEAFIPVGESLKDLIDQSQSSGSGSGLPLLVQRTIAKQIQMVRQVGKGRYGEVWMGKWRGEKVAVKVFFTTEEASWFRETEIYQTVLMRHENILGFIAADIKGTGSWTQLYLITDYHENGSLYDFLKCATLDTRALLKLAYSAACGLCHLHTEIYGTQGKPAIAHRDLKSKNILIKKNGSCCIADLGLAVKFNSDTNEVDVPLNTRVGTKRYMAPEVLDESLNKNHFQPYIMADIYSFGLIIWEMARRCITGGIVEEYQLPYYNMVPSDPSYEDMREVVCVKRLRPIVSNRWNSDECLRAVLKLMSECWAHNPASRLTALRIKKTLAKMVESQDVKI
Procedure, shortened: as §1

[5] = read-out: Kinome Profiling performed by Eurofins DiscoverX / AM-1882, 1.0 µM / POC
[6] = read-out: Kinome Profiling performed by Eurofins DiscoverX / AM-5308, 1.0 µM / POC
[7] = read-out: Kinome Profiling performed by Eurofins DiscoverX / AM-0277, 1.0 µM / POC

Sequence of WEE1 (P30291 whole entry): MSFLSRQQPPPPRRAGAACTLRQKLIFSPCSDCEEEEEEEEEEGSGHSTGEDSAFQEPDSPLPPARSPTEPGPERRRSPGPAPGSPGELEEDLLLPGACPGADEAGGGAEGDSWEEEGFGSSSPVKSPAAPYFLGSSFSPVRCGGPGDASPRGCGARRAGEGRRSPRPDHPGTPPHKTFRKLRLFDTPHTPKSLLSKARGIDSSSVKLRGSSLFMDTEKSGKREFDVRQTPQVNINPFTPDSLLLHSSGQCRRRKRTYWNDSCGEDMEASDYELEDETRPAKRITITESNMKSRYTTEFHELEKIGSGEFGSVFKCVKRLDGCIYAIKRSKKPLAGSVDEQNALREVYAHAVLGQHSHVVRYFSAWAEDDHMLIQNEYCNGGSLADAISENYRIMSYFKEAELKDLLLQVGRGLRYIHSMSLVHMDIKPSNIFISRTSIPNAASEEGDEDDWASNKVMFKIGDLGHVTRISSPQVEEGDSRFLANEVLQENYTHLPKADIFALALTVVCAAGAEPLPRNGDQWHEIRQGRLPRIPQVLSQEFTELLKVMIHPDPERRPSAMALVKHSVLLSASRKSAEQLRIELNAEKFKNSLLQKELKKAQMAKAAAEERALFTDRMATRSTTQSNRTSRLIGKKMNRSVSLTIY

remaining activity at 1 µM [1, 5]: 50% | remaining activity at 1 µM [2, 5]: 87% | remaining activity at 1 µM [3, 5]: 100% | remaining activity at 1 µM [4, 5]: 100%
SMILES: CC(C)(C)NS(=O)(=O)c1cccc(NC(=O)c2ccc(S(=O)(=O)NC(C)(C)C)cc2N2CCC3(CC2)CC3)c1 [AM-1882]

remaining activity at 1 µM [1, 6]: 100% | remaining activity at 1 µM [2, 6]: 75.5% | remaining activity at 1 µM [3, 6]: 91.5% | remaining activity at 1 µM [4, 6]: 93.5%
SMILES: C[C@@H]1CN(c2cccc(NC(=O)c3ccc(NS(=O)(=O)CCO)cc3N3CCC4(CC3)CC4)n2)CCO1 [AM-5308]

remaining activity at 1 µM [1, 7]: 100% | remaining activity at 1 µM [2, 7]: 100% | remaining activity at 1 µM [3, 7]: 94% | remaining activity at 1 µM [4, 7]: 100%
SMILES: CC(C)(CO)Nc1ccc(C(=O)Nc2cccc(S(=O)(=O)C3CCCC3)c2)c(N2CCC3(CC2)CC3)n1 [AM-0277]
